# Measurements from patent US6355799B1, “Substituted benzene compounds, process for their preparation, and herbicidal and defoliant compositions containing them” (ISK Americas Incorporated, priority 1997, dated 2002).
# Assays:
# Format in all cases: in vivo
# [1] = tested on: lambsquarters (Chenopodium album, CHEAL); experiment: Pre-emerge test, greenhouse herbicide activity screening; details: pre-emerge, phytotoxicity rating 0-100 at 14 days after application
# In short: (§1)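 Fourteen days after spraying, crop and weed injury was graded visually from 0, no effect, to 100, every plant dead. Test substances were dissolved in acetone and applied at 15–1000 g ai/ha with a flat-fan nozzle. Application was either pre-emergence, one day after sowing, or post-emergence at the 2–3 leaf stage.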
# [2] = tested on: ivyleaf morningglory (Ipomoea hederacea, IPOHE); experiment: as above; details: pre-emerge, phytotoxicity rating 0-100 at 14 days after application
# In short: as §1
# [3] = tested on: johnsongrass (Sorghum halepense, SORHA); experiment: as above; details: pre-emerge, phytotoxicity rating 0-100 at 14 days after application
# In short: as §1
# [4] = tested on: large crabgrass (Digitaria sanguinalis, DIGSA); experiment: as above; details: pre-emerge, phytotoxicity rating 0-100 at 14 days after application
# In short: as §1
# [5] = tested on: barnyardgrass (Echinochloa crus-galli, ECHCG); experiment: as above; details: pre-emerge, phytotoxicity rating 0-100 at 14 days after application
# In short: as §1
# [6] = tested on: sicklepod (Cassia obtusifolia, CASOB); experiment: as above; details: pre-emerge, phytotoxicity rating 0-100 at 14 days after application
# In short: as §1
# [7] = tested on: velvetleaf (Abutilon theophrasti, ABUTH); experiment: as above; details: pre-emerge, phytotoxicity rating 0-100 at 14 days after application
# In short: as §1
# [8] = tested on: green foxtail (Setaria viridis, SETVI); experiment: as above; details: pre-emerge, phytotoxicity rating 0-100 at 14 days after application
# In short: as §1
# [9] = tested on: upland rice (Oryza sp., var. Tebonnet, RICE); experiment: Pre-emerge test, crop safety; details: crop damage, pre-emerge, phytotoxicity rating 0-100 at 14 days after application
# In short: (§2)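 Compounds in acetone were track-sprayed at 15-1000 g ai/ha (187 l/ha) on sandy loam pots: pre-emerge one day after seeding, post-emerge at 2-3 leaf stage with 0.25% v/v non-ionic surfactant. Phytotoxicity was rated 14 days later on a 0 (no damage) to 100 (complete death) scale.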
# [10] = tested on: field corn (Zea mays L., var. Dekalb 535, CORN); experiment: Pre-emerge test, crop safety; details: crop damage, pre-emerge, phytotoxicity rating 0-100 at 14 days after application
# In short: as §2
# [11] = tested on: redroot pigweed (Amaranthus retroflexus, AMARE); experiment: Pre-emerge test, greenhouse herbicide activity screening; details: pre-emerge, phytotoxicity rating 0-100 at 14 days after application
# In short: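 Visual ratings on a 0-100 scale (0 no damage, 100 all plants dead) were taken at 14 days after treatment. Rates of 15-1000 g ai/ha in acetone, 187 l/ha, were sprayed onto soil one day after planting (pre-emerge) or onto 2-3 leaf plants with 0.25% v/v surfactant (post-emerge).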
# [12] = tested on: upland rice (Oryza sp., var. Tebonnet, RICE); experiment: Post-emerge test, crop safety; details: post-emerge, crop damage rating 0-100 at 14 days after application
# In short: as §1
# [13] = tested on: field corn (Zea mays L., var. Dekalb 535, CORN); experiment: Post-emerge test, crop safety; details: post-emerge, crop damage rating 0-100 at 14 days after application
# In short: as §1
# [14] = tested on: redroot pigweed (Amaranthus retroflexus, AMARE); experiment: Post-emerge test, greenhouse herbicide activity screening; details: post-emerge, phytotoxicity rating 0-100 at 14 days after application
# In short: (§3)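 Each test used a mechanized track sprayer delivering 187 l/ha of acetone solution at 15–1000 g ai/ha. Post-emerge foliage at 2–3 leaves was treated with added 0.25% v/v non-ionic surfactant and bottom-watered only. Injury was assessed on day 14, where 100 means total kill.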
# [15] = tested on: lambsquarters (Chenopodium album, CHEAL); experiment: as above; details: post-emerge, phytotoxicity rating 0-100 at 14 days after application
# In short: as §3
# [16] = tested on: ivyleaf morningglory (Ipomoea hederacea, IPOHE); experiment: as above; details: post-emerge, phytotoxicity rating 0-100 at 14 days after application
# In short: as §3
# [17] = tested on: johnsongrass (Sorghum halepense, SORHA); experiment: as above; details: post-emerge, phytotoxicity rating 0-100 at 14 days after application
# In short: as §3
# [18] = tested on: large crabgrass (Digitaria sanguinalis, DIGSA); experiment: as above; details: post-emerge, phytotoxicity rating 0-100 at 14 days after application
# In short: as §3
# [19] = tested on: barnyardgrass (Echinochloa crus-galli, ECHCG); experiment: as above; details: post-emerge, phytotoxicity rating 0-100 at 14 days after application
# In short: as §3
# [20] = tested on: common ragweed (Ambrosia artemisizfolia L., AMBEL); experiment: as above; details: post-emerge, phytotoxicity rating 0-100 at 14 days after application
# In short: as §3
# [21] = tested on: sicklepod (Cassia obtusifolia, CASOB); experiment: as above; details: post-emerge, phytotoxicity rating 0-100 at 14 days after application
# In short: as §3
# [22] = tested on: velvetleaf (Abutilon theophrasti, ABUTH); experiment: as above; details: post-emerge, phytotoxicity rating 0-100 at 14 days after application
# In short: as §3
# [23] = tested on: green foxtail (Setaria viridis, SETVI); experiment: as above; details: post-emerge, phytotoxicity rating 0-100 at 14 days after application
# In short: as §3
compound,measurement,setting,value
"COc1c(Cl)cc(F)c(-n2ncc(C(F)(F)F)cc2=O)c1NC(=O)c1ccc2ccccc2c1 [Compound 11-6, 2-(4-chloro-6-fluoro-3-methoxy-2-naphthoylamidophenyl)-5-trifluoromethylpyridazin-3-one]",Pre-emerge Herbicidal Activity CHEAL,[1]; rate 63 g ai/ha,100
same,Pre-emerge Herbicidal Activity CHEAL,[1]; rate 250 g ai/ha,100
same,Pre-emerge Herbicidal Activity IPOHE,[2]; rate 63 g ai/ha,0
same,Pre-emerge Herbicidal Activity IPOHE,[2]; rate 250 g ai/ha,80
same,Pre-emerge Herbicidal Activity SORHA,[3]; rate 63 g ai/ha,0
same,Pre-emerge Herbicidal Activity SORHA,[3]; rate 250 g ai/ha,40
same,Pre-emerge Herbicidal Activity DIGSA,[4]; rate 63 g ai/ha,100
same,Pre-emerge Herbicidal Activity DIGSA,[4]; rate 250 g ai/ha,100
same,Pre-emerge Herbicidal Activity ECHCG,[5]; rate 63 g ai/ha,90
same,Pre-emerge Herbicidal Activity ECHCG,[5]; rate 250 g ai/ha,100
same,Pre-emerge Herbicidal Activity CASOB,[6]; rate 63 g ai/ha,20
same,Pre-emerge Herbicidal Activity CASOB,[6]; rate 250 g ai/ha,99
same,Pre-emerge Herbicidal Activity ABUTH,[7]; rate 63 g ai/ha,95
same,Pre-emerge Herbicidal Activity ABUTH,[7]; rate 250 g ai/ha,100
same,Pre-emerge Herbicidal Activity SETVI,[8]; rate 63 g ai/ha,100
same,Pre-emerge Herbicidal Activity SETVI,[8]; rate 250 g ai/ha,100
same,Pre-emerge Herbicidal Activity RICE,[9]; rate 63 g ai/ha,0
same,Pre-emerge Herbicidal Activity RICE,[9]; rate 250 g ai/ha,50
same,Pre-emerge Herbicidal Activity CORN,[10]; rate 63 g ai/ha,0
same,Pre-emerge Herbicidal Activity CORN,[10]; rate 250 g ai/ha,20
same,Pre-emerge Herbicidal Activity AMARE,[11]; rate 63 g ai/ha,100
same,Pre-emerge Herbicidal Activity AMARE,[11]; rate 250 g ai/ha,100
same,Post-emerge Herbicidal Activity RICE,[12]; 63 g ai/ha,20
same,Post-emerge Herbicidal Activity RICE,[12]; 250 g ai/ha,60
same,Post-emerge Herbicidal Activity CORN,[13]; 63 g ai/ha,0
same,Post-emerge Herbicidal Activity CORN,[13]; 250 g ai/ha,20
same,Post-emerge Herbicidal Activity AMARE,[14]; 63 g ai/ha,100
same,Post-emerge Herbicidal Activity AMARE,[14]; 250 g ai/ha,100
same,Post-emerge Herbicidal Activity CHEAL,[15]; 63 g ai/ha,80
same,Post-emerge Herbicidal Activity CHEAL,[15]; 250 g ai/ha,100
same,Post-emerge Herbicidal Activity IPOHE,[16]; 63 g ai/ha,70
same,Post-emerge Herbicidal Activity IPOHE,[16]; 250 g ai/ha,100
same,Post-emerge Herbicidal Activity SORHA,[17]; 63 g ai/ha,0
same,Post-emerge Herbicidal Activity SORHA,[17]; 250 g ai/ha,0
same,Post-emerge Herbicidal Activity DIGSA,[18]; 63 g ai/ha,0
same,Post-emerge Herbicidal Activity DIGSA,[18]; 250 g ai/ha,0
same,Post-emerge Herbicidal Activity ECHCG,[19]; 63 g ai/ha,50
same,Post-emerge Herbicidal Activity ECHCG,[19]; 250 g ai/ha,80
same,Post-emerge Herbicidal Activity AMBEL,[20]; 63 g ai/ha,100
same,Post-emerge Herbicidal Activity AMBEL,[20]; 250 g ai/ha,100
same,Post-emerge Herbicidal Activity CASOB,[21]; 63 g ai/ha,100
same,Post-emerge Herbicidal Activity CASOB,[21]; 250 g ai/ha,100
same,Post-emerge Herbicidal Activity ABUTH,[22]; 63 g ai/ha,100
same,Post-emerge Herbicidal Activity ABUTH,[22]; 250 g ai/ha,100
same,Post-emerge Herbicidal Activity SETVI,[23]; 63 g ai/ha,10
same,Post-emerge Herbicidal Activity SETVI,[23]; 250 g ai/ha,50
